According to publication PMC7506137, “Selective Phosphodiesterase 1 Inhibitor BTTQ Reduces Blood Pressure in Spontaneously Hypertensive and Dahl Salt Sensitive Rats: Role of Peripheral Vasodilation” (Frontiers in Physiology, 2020):
pIC50: −log10 of the molar value. Where two headings read alike, the source gives them in different places.

What was measured:
Rat PDE1B = molecular target: T1, Rat PDE1B (Rattus norvegicus, UniProt Q01066); assay: PDE scintillation proximity enzyme assay; format: biochemical
T1 construct: made in house; host or cells: baculovirus-infected insect cells
T1 sequence (Q01066 1-535): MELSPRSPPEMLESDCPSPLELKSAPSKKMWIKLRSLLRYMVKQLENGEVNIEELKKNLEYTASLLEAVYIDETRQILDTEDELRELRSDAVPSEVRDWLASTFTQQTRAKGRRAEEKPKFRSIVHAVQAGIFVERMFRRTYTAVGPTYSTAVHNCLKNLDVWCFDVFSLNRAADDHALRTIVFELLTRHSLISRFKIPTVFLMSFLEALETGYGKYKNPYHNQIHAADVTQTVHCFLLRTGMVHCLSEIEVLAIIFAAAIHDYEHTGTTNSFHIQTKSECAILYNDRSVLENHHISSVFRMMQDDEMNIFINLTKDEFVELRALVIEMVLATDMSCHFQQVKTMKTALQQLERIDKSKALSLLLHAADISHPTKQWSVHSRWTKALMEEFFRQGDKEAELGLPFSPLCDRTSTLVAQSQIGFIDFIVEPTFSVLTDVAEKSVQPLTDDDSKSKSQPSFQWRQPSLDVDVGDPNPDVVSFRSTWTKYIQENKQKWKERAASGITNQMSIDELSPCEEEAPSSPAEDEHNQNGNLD
Experimental: (§1) All PDE enzyme activities were measured with a yittrium silicate based scintillation proximity assay that detects radioactive nucleotide monophosphates but not cyclic monophosphates. Assays are conducted in a total volume of 50 μl in 384 well plates (3706, Corning): comprised of 24 μl enzyme, 1 μl compound, and 25 μl of cyclic nucleotide. The general assay buffer consists of 50 mM Tris-HCl (pH 7.5) and 0.1% (w/v) bovine serum albumin (Fatty Acid Free, Sigma-Aldrich). Enzyme concentrations, substrate concentrations, and various PDE-specific buffer additives are described in Supplementary Table 1. Compounds to be tested are diluted in pure dimethyl sulfoxide (DMSO) using 10-point concentration-response curves, and 1 μl is acoustically dispensed into assay plates using the Echo555 (LabCyte). Maximal compound concentration in the reaction mixture is either 10 or 100 μM. Compounds at the appropriate concentration are pre-incubated with either of the PDE enzymes for 30 min before the reaction is started by the addition of substrate ([8-^3H]-cAMP, 20.7 Ci/mmol or [8-^3H]-cGMP; 6.5 Ci/mmol, Perkin Elmer). Reactions are allowed to proceed for 60 min at room temperature before quenching. Next, reactions are stopped by the addition of 400 μg/per well SPA beads (RPNQ0150, Perkin Elmer) and a potent non-selective PDE inhibitor to quench the reaction. Bead bound radioactivity (product) is quantified 12 h later a Microbeta counter (Perkin Elmer). Data is normalized to % inhibition using standard methods ([Campbell et al., 2004]), and IC50 values were plotted using PRISM (GraphPad Software) using the 4 parameter logistic equation ([Campbell et al., 2004]). Data for potency values are expressed as the geometric mean and arithmetic standard deviation.

Rat PDE3A = molecular target: T2, Rat PDE3A (Rattus norvegicus, UniProt Q62865); assay: PDE scintillation proximity enzyme assay; format: biochemical
T2 construct: made in house; host or cells: baculovirus-infected insect cells
T2 sequence (Q62865 1-1141): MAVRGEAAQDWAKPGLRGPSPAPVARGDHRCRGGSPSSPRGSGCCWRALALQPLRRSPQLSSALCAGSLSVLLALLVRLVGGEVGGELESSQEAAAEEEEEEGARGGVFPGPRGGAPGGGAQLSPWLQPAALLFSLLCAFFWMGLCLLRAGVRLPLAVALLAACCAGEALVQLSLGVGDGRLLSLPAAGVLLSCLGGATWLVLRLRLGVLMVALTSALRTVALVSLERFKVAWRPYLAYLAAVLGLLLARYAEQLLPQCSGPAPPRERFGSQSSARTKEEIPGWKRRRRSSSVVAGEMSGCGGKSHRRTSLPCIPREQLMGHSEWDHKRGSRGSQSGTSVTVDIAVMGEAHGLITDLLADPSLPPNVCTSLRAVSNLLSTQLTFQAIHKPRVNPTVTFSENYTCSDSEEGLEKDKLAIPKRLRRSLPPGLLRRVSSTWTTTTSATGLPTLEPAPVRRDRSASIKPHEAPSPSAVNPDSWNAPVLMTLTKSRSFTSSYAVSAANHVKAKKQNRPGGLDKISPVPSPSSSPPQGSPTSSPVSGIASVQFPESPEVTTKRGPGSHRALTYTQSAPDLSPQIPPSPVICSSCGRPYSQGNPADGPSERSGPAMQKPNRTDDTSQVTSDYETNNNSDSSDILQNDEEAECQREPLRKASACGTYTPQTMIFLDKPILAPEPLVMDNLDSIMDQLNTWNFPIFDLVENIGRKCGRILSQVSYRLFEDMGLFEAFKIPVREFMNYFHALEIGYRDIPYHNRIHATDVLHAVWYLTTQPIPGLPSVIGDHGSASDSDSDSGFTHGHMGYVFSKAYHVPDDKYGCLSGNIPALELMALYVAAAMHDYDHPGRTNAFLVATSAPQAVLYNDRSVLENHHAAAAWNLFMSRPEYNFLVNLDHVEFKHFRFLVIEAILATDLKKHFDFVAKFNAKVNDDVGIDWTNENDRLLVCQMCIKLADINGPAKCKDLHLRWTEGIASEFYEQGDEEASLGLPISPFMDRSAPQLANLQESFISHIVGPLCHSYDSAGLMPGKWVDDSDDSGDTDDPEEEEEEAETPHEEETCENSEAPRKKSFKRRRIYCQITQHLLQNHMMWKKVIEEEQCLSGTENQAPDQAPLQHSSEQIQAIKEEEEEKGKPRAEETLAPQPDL
Experimental: as §1

PDE1 = assay: Calculated target engagement from unbound drug concentration; format: in vivo, Rat; details: for % TE: 1 h, hill slope 1

pIC50 (Rat PDE1B): 9.00
IC50 (Rat PDE3A): inactive
pIC50 (Rat PDE3A; read-out: IC50): < 4.00
pIC50 (PDE1; IC50 used for the target engagement calculation): 8.86
Compound: O=c1c2nnc(C3(C4CC4)CC3)n2c2c(n1CC1CC1)CCCC2 [BTTQ, 1-[1,1′-bi(cyclopropyl)-1-yl]-5-(cyclopropylmethyl)-6,7,8,9-tetrahydro[1,2,4]triazolo[4,3-A]quinoxaline-4(5H)-one]
% TE (PDE1; dose 0.1 (mg/kg oral)): 88.55%
% TE (PDE1; dose 0.3 (mg/kg oral)): 95.29%
% TE (PDE1; dose 1 (mg/kg oral)): 98.54%
% TE (PDE1; dose 3 (mg/kg oral)): 99.31%
